Test results as given in patent US6337341B1 (priority 1996, dated 2002).

melting point [°C]	Compound
80 to 85	COC(=O)/C=C\c1snnc1C [Compound No. 341, methyl (Z)-3-(4-methyl-1,2,3-thiadiazol-5-yl)-2-propenate]
118	Cc1nnsc1CS(=O)(=O)c1ccccc1
> 250	Cc1nnsc1CN.Cl [Compound No. 220, 5-aminomethyl-4-methyl-1,2,3-thiadiazole hydrochloride]
182	Cc1nnsc1-c1nnc(S)o1 [Compound No. 102, 5-(5-mercapto-1,3,4-oxadiazol-2-yl)-4-methyl-1,2,3-thiadiazole]
124	COC(=O)c1csc(-c2snnc2-c2ccccc2)n1
70	COC(=O)/C=C/c1snnc1C [Compound No. 338, methyl (E)-3-(4-methyl-1,2,3-thiadiazol-5-yl)-2-propenate]
65	CSc1nnc(-c2snnc2C)o1
